Patent publication US20240238310A1, “MODULATION OF SEX STEROID HORMONE PRODUCTION AND ACTIVITY FOR TREATING AND PREVENTING HERNIAS” (Northwestern University, priority 2020, published 2024)

Legend:
Arom^hum mice = assay: Prevention of inguinal hernia, LAMT fibrosis and atrophy in Arom^hum mice (treatment started before hernia formation); format: in vivo, mouse; conditions: Arom^hum mice
Text: Increased LAMT estrogen levels are associated with LAMT fibrosis, myocyte atrophy, and inguinal hernia development; aromatase inhibitor prevents hernia formation in Arom^hum mice. […] None of the WT littermates (n=32) developed hernia.
In the mouse, the scrotum is connected to the peritoneal cavity with a narrow funicular (or inguinal) canal, whose walls are composed of LAMT. Structurally normal LAMT is essential to maintain the tone of this canal and prevents herniation of bowel. LAMT is the critical site affected by E2 excess (FIGS. 2, 5, 6). As in many other tissues, stromal cells intimately interact with parenchymal cells (myocytes) in UAMT and LAMT (FIG. 6). […] Administration of the aromatase inhibitor letrozole started at 3 weeks of age for 12 weeks prevented LAMT atrophy, fibrosis and herniation in all (10 out of 10) treated Arom^hum mice (FIG. 6B).
Experiment 1a1: Does aromatase inhibition arrest or reverse LAMT fibrosis, atrophy, and hernia in male Arom^hum mice? […] The hernias will be classified as mild, early moderate, late moderate and severe if the bulging area through muscle tissue is <100 mm^2 (˜4 weeks), 100-150 mm^2 (˜6 weeks), 150-200 mm^2 (˜8 weeks), or >200 mm^2 (˜10 weeks), respectively. First, we will treat Arom^hum mice showing mild hernias with letrozole (SC 10 μg/day release pellet) or vehicle starting at 4 weeks of age for 12 weeks^63. We will assess whether muscle fibrosis, atrophy, and hernia can be arrested or reversed in mildly (<100 mm^2) affected animals. If early letrozole treatment can arrest mild muscle fibrosis, we will delay the initiation of treatment to 6, 8, or 10 weeks of age to determine whether letrozole can arrest or reverse the growth of the early moderate (6 weeks), late moderate (8 weeks) or severe hernia (10 weeks). Hernia development will be monitored by visual inspection twice a week for 12 weeks after letrozole administration and will be reported as hernia incidence using Kaplan-Meier curve analysis. The length and width of the observed hernias will be measured to calculate the surface area (length×width). After completion of the treatment, the mice will be dissected, and LAMT, UAMT (control), and serum will be collected. One hundred mg of frozen muscle tissue will be obtained to measure tissue estrogen levels. Circulating and tissue (LAMT and UAMT) E2 levels will be measured at the IIT Research Institute by Dr. Miguel Muzzio (see letter) using LC-MS^2. We will use immunoblotting and IHC to determine ERα expression in LAMT and UAMT.
This finding was published in PNAS in Oct., 2018. […] We treated Arom^hum mice with fulvestrant for 12 weeks starting at the age of 4 weeks (before hernia formation). As expected, placebo-treated Arom^hum mice developed scrotal hernias.

[1] = tested on: LAMT primary fibroblasts from Arom^hum mice; assay: mRNA levels of estrogen-responsive and fibrotic genes in LAMT primary fibroblasts after E2 antagonist treatment; format: cell-based, mouse; conditions: 100 nM ICI 182,780, pretreated 2 hours before addition of E2 (10 nM)
Method: FIG. 10. mRNA levels of estrogen-responsive genes [Pgr (A, E) and Greb1 (B, F)] and fibrotic genes [Spon2 (C, G), Kiss1 (D), and Eln (H)] in LAMT primary fibroblasts from Arom^hum mice after treatment with 100 nM ICI 182,780 (ICI) or […] MPP in the presence or absence of E2 (10 nM). Cells were pretreated with ICI 182,780 or MPP for 2 hours before the addition of E2. Veh, vehicle. *P<0.05, **P<0.01. GAPDH mRNA levels served as controls.
Experiment 1a2: Does the general E2 antagonist fulvestrant, which downregulates and blocks ER, or ERα-selective E2 antagonist MPP prevent, arrest or reverse LAMT muscle fibrosis, atrophy and inguinal hernias in male Arom^hum mice? […] Here, we will define whether the effects of E2 on hernia formation in LAMT is mediated via ERα in vivo. We will treat Arom^hum or WT mice with vehicle, fulvestrant (ICI 182,780), or MPP. […] Circulating and muscle tissue E2 levels will be measured using LC-MS^2. To validate the effects of each treatment, protein expression of ERα and E2/ERα target genes (Ccnd1, Pgr, and Greb1), and cell proliferation markers (Ki67 and PCNA) will be determined by IHC and immunoblotting. Fibrotic-related genes (Kiss1, Ren1, Emb, Timp1, Spon2, and Eln), the ECM marker Col1a1, and the myocyte marker Myh will be assessed using qPCR and IHC in LAMT after fulvestrant, MPP, and/or letrozole treatment. […]

C[C@]12CC[C@@H]3c4ccc(O)cc4C[C@@H](CCCCCCCCC[S+]([O-])CCCC(F)(F)C(F)(F)F)[C@H]3[C@@H]1CC[C@@H]2O (stereo partly shown) [fulvestrant]
development of LAMT fibrosis (fibrotic area, Masson's trichrome) (Arom^hum mice; 4-week-old mice treated for 12 weeks, FIGS. 15C and D): rescues lower abdominal muscle tissue (LAMT) fibrosis and myocyte atrophy
myofiber atrophy (myofiber cross-sectional area) (Arom^hum mice; 4-week-old mice treated for 12 weeks, FIGS. 15C and E): completely prevented myofiber atrophy
hernia formation (Arom^hum mice; fulvestrant for 12 weeks starting at the age of 4 weeks (before hernia formation)): completely prevented by fulvestrant administration
E2-induced expression of estrogen-responsive genes (Pgr and Greb1) and fibrotic genes (Spon2, Kiss1, Eln) [1]: significantly decreased E2-induced expression of estrogen-responsive genes (Pgr and Greb1) and fibrotic genes (Spon2, Kiss1 and, Eln)
